# Assay results taken from patent publication US11279726B2, “Norbornene-based amphipathic compound and utilization thereof” (Industry-University Cooperation Foundation Hanyang …, priority 2017, dated 2022).
# Columns and labels:
# [1] = molecular target: T1, uric acid-xanthine/H+ symporter (UapA) (Emericella nidulans, UniProt Q07307, G411V); assay: UapA extraction and thermal stability by fluorescence size exclusion chromatography (FSEC); set-up: species or system Aspergillus nidulans; conditions: 1.0 wt % amphiphile; for Retention of monodispersed UapA-GFP peak after heating (FSEC): 10 minutes at 40° C., compared with DDM
# T1 construct: made in house; host or cells: Saccharomyces cerevisiae FGY217
# Protocol: An experiment for measuring the structural stability of uric acid-xanthine/H+ symporter (UapA) isolated from Aspergillus nidulans using NBMs was performed. The structural stability of UapA was evaluated using […].
# Specifically, UapAG411VΔ1-11 (hereinafter, referred to as “UapA”) was expressed as GFP fusion in Saccharomyces cerevisiae FGY217 strain and isolated in a sample buffer (20 mM Tris (pH 7.5), 150 mM NaCl, 0.03% DDM, 0.6 mM xanthine) according to the method described in the literature written by J. Leung et al. (Mol. Membr. Biol. 2013, 30, 32-42). Membranes containing UapA were resuspended in PBS, 10 mM imidazole pH 8.0, 150 mM NaCl, 10% glycerol, and the protein concentration was measured. The membranes were adjusted to a concentration of 1 mg·ml^−1 and 1 ml aliquots were individually incubated with DDM or NBMs at a final amphiphilic material concentration of 1.0 wt % for 10 minutes at 40° C. 100 μl aliquots were removed from each tube, and a fluorescence reading was taken for each sample before and after ultracentrifugation at 150,000 g for 10 minutes to remove insoluble material. The remaining soluble fraction for each condition was submitted to fluorescent size exclusion chromatography (FSEC) using a Superose 6 column (GE Healthcare) equilibrated with DDM.
# mBBr-β2AR = mBBr-β2AR (Homo sapiens, UniProt P07550); assay: Gs-protein coupling assay, bimane fluorescence of mBBr-β2AR; conditions: 0.1% amphiphile, 2 μM ISO, 250 nM Gs
# Protocol: To investigate a protein function, the receptor was conjugated with a fluorophore (monobromobimane; mBBr). The mBBr-β2AR was used to monitor the conformational changes of the receptor in the presence of binding partners (isopreoterenol (ISO) and Gs-protein) through fluorescence measurement, and detailed experimental methods are as follows.
# 0.5 μl undispersed mBBr-labeled receptor at 50 μM in DDM was diluted with 500 μl 0.1% NBM or DDM-containing buffer, and incubated for 15 minutes at room temperature, thereby obtaining a receptor having a final concentration of 50 nM. 2 μM isoproterenol (ISO) was added and the resulting solution was further incubated for 15 minutes at room temperature. After addition of 250 nM Gs, the protein samples were further incubated at room temperature for 20 minutes. Bimane fluorescence was measured by excitation at 370 nm, and emission spectra were recorded from 430 nm to 510 nm in a unit of 1 nm increments with 0.5 nm/s integration on a Spex FluoroMax-3 spectrofluorometer (Jobin Yvon Inc.) in photon counting mode set at 4-nm emission bandwidth pass. The mBBr response in 0.1% DDM was used as a positive control.
# β2AR-Gs complex = β2AR-Gs complex (Homo sapiens, UniProt P07550); assay: Negative stain EM analysis of β2AR-Gs complex
# Protocol: A β2AR-Gs protein complex was prepared for electron microscopy using the conventional negative staining protocol, and imaged at room temperature with a Tecnai T12 electron microscope operated at 120 kV using low-dose procedures. Images were recorded at a magnification of 71,138× and a defocus value of approximately 1.4μ using a Gatan US4000 CCD camera. All images were binned (2×2 pixels) to obtain a pixel size of 4.16 A at the specimen level. Particles were manually excised using e2boxer (part of the EMAN2 software suite). 2D reference-free alignment and classification of particle projections were performed using ISAC. 14,556 projections of β2AR-Gs were subjected to ISAC, producing 199 classes consistent over two-way matching and accounting for 10,100 particle projections.
# β2AR / β2AR-Gs complex [2] = assay: Size exclusion chromatography of β2AR and β2AR-Gs complex after amphiphile exchange; set-up: species or system human; conditions: 21-day incubation at 4° C.
# Protocol: (§1) β2AR purified with 0.1 wt % DDM was loaded onto an M1 Flag column in the presence of 2 mM […], and the column was washed with a DDM or X-NBM-C11 buffer (20 mM HEPES pH 7.5, 100 mM NaCl, 0.2% respective amphiphile). The receptor was eluted in 20× CMC DDM or X-NBM-C11 containing 5 mM EDTA and 0.2 mg/ml free Flag peptide. The eluate was further applied to a superdex-200 10/300 GL column (GE healthcare) at 0.5 ml/min, and UV absorbance at 280 nm was recorded. The running buffer contained 20 mM HEPES pH 7.5, 100 mM NaCl, 20× CMC individual detergents (DDM and X-NBM-C11).
# (§2) In addition, GPCR-Gs complex purified in DDM was replaced with X-NBM-C11 through amphiphilic molecule exchange, and sample aliquots were obtained at regular intervals in 21-day incubation at 4° C. to measure complex stability.
# β2AR / β2AR-Gs complex [3] = molecular target: T2, β2AR / β2AR-Gs complex (Homo sapiens, UniProt P07550); assay: as above; conditions: after amphiphile exchange, 20x CMC
# T2 construct: Flag; made in house
# Protocol: as §1, §2
SMILES,Retention of monodispersed UapA-GFP peak after heating (FSEC) [1],Conformational change / function of mBBr-β2AR with ISO and Gs (mBBr-β2AR),Particle dispersity of β2AR-Gs complex in negative stain EM (β2AR-Gs complex),UapA extraction efficiency from the cell membrane [1],β2AR-Gs complex stability by SEC profiles (β2AR / β2AR-Gs complex [2]),Size/homogeneity of β2AR protein-detergent complexes (SEC) (β2AR / β2AR-Gs complex [3])
CCCCCCCCCCCOCC1C2CC([C@@H]1COCCCCCCCCCCC)[C@H](O[C@@H]1OC(CO)[C@@H](O[C@H]3OC(CO)[C@@H](O)C(O)C3O)C(O)C1O)C2O[C@@H]1OC(CO)[C@@H](O[C@H]2OC(CO)[C@@H](O)C(O)C2O)C(O)C1O (stereo partly drawn) [D-NBM-C11],a little better than DDM,–,–,–,–,–
CCCCCCCCCCCOCC1C2CC([C@H]1COCCCCCCCCCCC)[C@H](O[C@@H]1OC(CO)[C@@H](O[C@H]3OC(CO)[C@@H](O)C(O)C3O)C(O)C1O)C2O[C@@H]1OC(CO)[C@@H](O[C@H]2OC(CO)[C@@H](O)C(O)C2O)C(O)C1O (stereo partly shown) [X-NBM-C11],substantially better than DDM,retains an original protein function,highly mono-dispersed particles,almost quantitatively extract,perfectly maintained complex stability,homogeneous PDCs with the same size as that formed by DDM
